Results taken from ChEMBL document CHEMBL1201862, “PubChem BioAssay data set” (2004).
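Assay format: 96-well plates, 48-hour exposure. Abbreviation: GI50, concentration required for 50% inhibition of growth.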 Active and inactive are the calls of the source. Cut-off read from the data, not from the text of the source: active = GI50 up to about 1.1 µM and inactive = higher.

Key:
Test in all cases: NCI anticancer screen, dose series, 48 h
IGROV-1 = test system: IGROV-1
SF-539 = test system: SF-539
LOX IMVI = test system: LOX IMVI
SK-OV-3 = test system: SK-OV-3
PC-3 = test system: PC-3
MDA-MB-231 = test system: MDA-MB-231
CCRF-CEM = test system: CCRF-CEM
SF-268 = test system: SF-268
TK-10 = test system: TK-10
T47D = test system: T47D
A498 = test system: A498
ACHN = test system: ACHN
NCI-H522 = test system: NCI-H522
RXF 393 = test system: RXF 393
OVCAR-4 = test system: OVCAR-4
SK-MEL-5 = test system: SK-MEL-5
NCI/ADR-RES = test system: NCI/ADR-RES

Structure (SMILES)	GI50 (IGROV-1)	GI50 (SF-539)	GI50 (LOX IMVI)	GI50 (SK-OV-3)	GI50 (PC-3)	GI50 (MDA-MB-231)	GI50 (CCRF-CEM)	GI50 (SF-268)	GI50 (TK-10)	GI50 (T47D)	GI50 (A498)	GI50 (ACHN)	GI50 (NCI-H522)	GI50 (RXF 393)	GI50 (OVCAR-4)	GI50 (SK-MEL-5)	GI50 (NCI/ADR-RES)
O=C1c2ccccc2C(=O)c2c(OCC3CO3)ccc(OCC3CO3)c21 (configuration not stated)	3.54 µM (inactive)	4.15 µM (inactive)	0.0386 µM (active)	12.4 µM (inactive)	4.42 µM (inactive)	12.5 µM (inactive)	< 0.0167 µM (active)	0.346 µM (active)	18.8 µM (inactive)	6 µM (inactive)	17.9 µM (inactive)	0.964 µM (active)	3.26 µM (inactive)	3.96 µM (inactive)	6.52 µM (inactive)	5.69 µM (inactive)	2.21 µM (inactive)
NS(=O)(=O)c1ccc(/N=N/c2ncccc2O)cc1	> 100 µM (inactive)	55.6 µM (inactive)	77.4 µM (inactive)	> 100 µM (inactive)	> 100 µM (inactive)	> 100 µM (inactive)	–	> 100 µM (inactive)	> 100 µM (inactive)	> 100 µM (inactive)	> 100 µM (inactive)	> 100 µM (inactive)	44.9 µM (inactive)	> 100 µM (inactive)	57.7 µM (inactive)	> 100 µM (inactive)	> 100 µM (inactive)
Cc1cc(=O)oc2cc(O)c(CN(C)CC(=O)O)cc12	> 100 µM (inactive)	> 100 µM (inactive)	> 100 µM (inactive)	–	> 100 µM (inactive)	> 100 µM (inactive)	–	> 100 µM (inactive)	> 100 µM (inactive)	> 100 µM (inactive)	> 100 µM (inactive)	> 100 µM (inactive)	> 100 µM (inactive)	> 100 µM (inactive)	> 100 µM (inactive)	> 100 µM (inactive)	> 100 µM (inactive)
C=CCNS(=O)(=O)c1ncnc2[nH]cnc12	> 100 µM (inactive)	–	67.9 µM (inactive)	> 100 µM (inactive)	> 100 µM (inactive)	> 100 µM (inactive)	> 100 µM (inactive)	–	> 100 µM (inactive)	> 100 µM (inactive)	> 100 µM (inactive)	> 100 µM (inactive)	> 100 µM (inactive)	59.7 µM (inactive)	> 100 µM (inactive)	> 100 µM (inactive)	> 100 µM (inactive)
CN(C)Cc1nsc(N(C)C)n1	> 100 µM (inactive)	> 100 µM (inactive)	> 100 µM (inactive)	> 100 µM (inactive)	> 100 µM (inactive)	> 100 µM (inactive)	–	> 100 µM (inactive)	> 100 µM (inactive)	> 100 µM (inactive)	> 100 µM (inactive)	> 100 µM (inactive)	> 100 µM (inactive)	> 100 µM (inactive)	> 100 µM (inactive)	> 100 µM (inactive)	> 100 µM (inactive)
CC1(C)CCC[C@@]2(C)C1C(=O)[C@@H]1O[C@]1(C)[C@@H]2CO (some centres not stated)	45.8 µM (inactive)	37.8 µM (inactive)	19.8 µM (inactive)	39.6 µM (inactive)	35.4 µM (inactive)	49 µM (inactive)	11.4 µM (inactive)	26.2 µM (inactive)	80 µM (inactive)	26.7 µM (inactive)	38.6 µM (inactive)	40.3 µM (inactive)	22.6 µM (inactive)	25.6 µM (inactive)	24.4 µM (inactive)	46.2 µM (inactive)	48.8 µM (inactive)
O=C1N[C@@H](c2c[nH]c3ccc(Br)cc23)C(=O)N[C@H]1c1c[nH]c2ccc(Br)cc12	10.9 µM (inactive)	5.21 µM (inactive)	6.14 µM (inactive)	15.9 µM (inactive)	3.6 µM (inactive)	8.87 µM (inactive)	4.11 µM (inactive)	8.15 µM (inactive)	4.06 µM (inactive)	10.8 µM (inactive)	5.24 µM (inactive)	3.68 µM (inactive)	6.61 µM (inactive)	15.6 µM (inactive)	5.73 µM (inactive)	5.38 µM (inactive)	31.4 µM (inactive)
CCCCCCCC/C=C\CCCCCCC/C=C1\C[C@](/C=C/C(=O)OC)(CO)OC1=O	2.75 µM (inactive)	1.78 µM (inactive)	1.38 µM (inactive)	6.3 µM (inactive)	1.79 µM (inactive)	1.94 µM (inactive)	1.32 µM (inactive)	1.96 µM (inactive)	1.93 µM (inactive)	3.27 µM (inactive)	8.34 µM (inactive)	2.19 µM (inactive)	2.58 µM (inactive)	5.28 µM (inactive)	3.2 µM (inactive)	3.31 µM (inactive)	3.47 µM (inactive)
C=CCn1c(-c2ccc([N+](=O)[O-])cc2)csc1=N	59 µM (inactive)	–	20.3 µM (inactive)	54.7 µM (inactive)	48.1 µM (inactive)	16.8 µM (inactive)	11.1 µM (inactive)	74.5 µM (inactive)	66.7 µM (inactive)	26.2 µM (inactive)	> 100 µM (inactive)	83.2 µM (inactive)	36.6 µM (inactive)	7.43 µM (inactive)	42.8 µM (inactive)	14.8 µM (inactive)	44.3 µM (inactive)
CO[C@@H]1C[C@H]2[C@@H]3CC[C@H]([C@H](C)COC(C)=O)[C@@]3(C)CC[C@@H]2[C@@]2(C)CC[C@H]3C[C@]312	> 100 µM (inactive)	> 100 µM (inactive)	> 100 µM (inactive)	–	> 100 µM (inactive)	> 100 µM (inactive)	> 100 µM (inactive)	> 100 µM (inactive)	> 100 µM (inactive)	> 100 µM (inactive)	> 100 µM (inactive)	> 100 µM (inactive)	> 100 µM (inactive)	> 100 µM (inactive)	> 100 µM (inactive)	> 100 µM (inactive)	> 100 µM (inactive)
O=C1C[C@H]2[C@@H](O1)[C@@H](O)CN1C(=O)c3ccccc3[C@H]21	> 100 µM (inactive)	> 100 µM (inactive)	> 100 µM (inactive)	> 100 µM (inactive)	> 100 µM (inactive)	> 100 µM (inactive)	> 100 µM (inactive)	> 100 µM (inactive)	> 100 µM (inactive)	> 100 µM (inactive)	> 100 µM (inactive)	> 100 µM (inactive)	> 100 µM (inactive)	> 100 µM (inactive)	> 100 µM (inactive)	> 100 µM (inactive)	> 100 µM (inactive)
N=c1oc2ccccc2cc1C(=O)Nc1nccs1	8.26 µM (inactive)	5.75 µM (inactive)	2.33 µM (inactive)	7.78 µM (inactive)	34.5 µM (inactive)	33.7 µM (inactive)	2.79 µM (inactive)	47.3 µM (inactive)	7.85 µM (inactive)	14.1 µM (inactive)	45.7 µM (inactive)	4.54 µM (inactive)	0.647 µM (active)	17.5 µM (inactive)	20.5 µM (inactive)	31 µM (inactive)	19.7 µM (inactive)
CCc1cccc(C(C)C)c1NC1=C([n+]2ccc(C)cc2)C(=O)c2ccccc2C1=O.[O-][Cl+3]([O-])([O-])[O-]	0.284 µM (active)	0.895 µM (active)	0.673 µM (active)	2.64 µM (inactive)	1.54 µM (inactive)	2.21 µM (inactive)	0.21 µM (active)	0.359 µM (active)	7.87 µM (inactive)	0.13 µM (active)	2.75 µM (inactive)	0.275 µM (active)	1.32 µM (inactive)	0.575 µM (active)	1.73 µM (inactive)	1.14 µM (inactive)	4.92 µM (inactive)
Oc1ccc(-c2nn3c(CCCCCCCCc4nnc5sc(-c6ccc(O)cc6)nn45)nnc3s2)cc1	–	> 100 µM (inactive)	> 100 µM (inactive)	> 100 µM (inactive)	> 100 µM (inactive)	> 100 µM (inactive)	> 100 µM (inactive)	> 100 µM (inactive)	> 100 µM (inactive)	55.1 µM (inactive)	> 100 µM (inactive)	> 100 µM (inactive)	> 100 µM (inactive)	> 100 µM (inactive)	> 100 µM (inactive)	> 100 µM (inactive)	> 100 µM (inactive)
C=CC(C)(C)n1cc(C2=C(O)C(=O)C(c3c(CC=C(C)C)[nH]c4ccccc34)=C(O)C2=O)c2ccccc21	0.879 µM (active)	–	0.998 µM (active)	2.14 µM (inactive)	1.73 µM (inactive)	1.81 µM (inactive)	1.92 µM (inactive)	0.548 µM (active)	–	2.47 µM (inactive)	1.57 µM (inactive)	1.56 µM (inactive)	2.3 µM (inactive)	1.74 µM (inactive)	2.19 µM (inactive)	1.87 µM (inactive)	2.47 µM (inactive)
C=C(C)C(O)C(O)c1c(OC)ccc2ccc(=O)oc12 (configuration not stated)	> 100 µM (inactive)	> 100 µM (inactive)	–	> 100 µM (inactive)	> 100 µM (inactive)	> 100 µM (inactive)	> 100 µM (inactive)	> 100 µM (inactive)	> 100 µM (inactive)	> 100 µM (inactive)	> 100 µM (inactive)	> 100 µM (inactive)	> 100 µM (inactive)	> 100 µM (inactive)	> 100 µM (inactive)	> 100 µM (inactive)	> 100 µM (inactive)
CC(CN(C)C)C(O)(c1ccccc1)c1ccccc1 (configuration not stated)	> 100 µM (inactive)	> 100 µM (inactive)	> 100 µM (inactive)	> 100 µM (inactive)	> 100 µM (inactive)	> 100 µM (inactive)	> 100 µM (inactive)	> 100 µM (inactive)	> 100 µM (inactive)	> 100 µM (inactive)	> 100 µM (inactive)	> 100 µM (inactive)	> 100 µM (inactive)	> 100 µM (inactive)	> 100 µM (inactive)	> 100 µM (inactive)	> 100 µM (inactive)
